Data published in patent publication US4916149A, “Diuretic and saluretic 4-chloro-3-sulfamoylbenzoic acid hydrazides” (Chinoin Gyogyszer es Vegyeszeti Termekek Gyara Rt., priority 1987, dated 1990).
Values joined by “and” are separate entries in the source; they are usually repeats but may differ in a detail not shown here. Equal values may be shown once. Read-outs that look alike come from different tables or passages of the source.

How the values were obtained:
[1] = Glucose tolerance, serum uric acid and cholesterol; assay type: in vivo
[2] = Saluretic/diuretic screening in rats (method of Lipschitz as modified by Kagawa and Kahn); assay type: in vivo, male LATI CFY rats; conditions: for response vs control in vivo at 5 mg/kg: Rattus norvegicus; for response vs control in vivo at 5 mg/kg / Na/K ratio of the urine discharged: single oral dose (5 mg/kg oral screen dose), 24 hours; for Na/K ratio of the urine discharged: control 3.0
Description: The compounds of the present invention were compared with Dihydrochlorothiazide and Furosemide in rats by administration of a 5 mg/kg oral screen dose.
The screening tests were carried out on male LATI CFY rats having an average body-weight of 240 g. The animals were kept on standard rat food and starved for 16 hours before the experiment but they received water ad libitum. For evaluation of the diuretic effect, the method of Lipschitz as modified by Kagawa and Kahn [Arch. Int. Pharmacodyn. 137, 241 (1962)] was used.
Effect of a single oral dose of the compounds according to the invention on water, sodium and potassium diuresis during 24 hours as percentage of the simultaneously measured control values as well as their effect on the Na/K ratio of the urine discharged

[3] = Antihypertensive activity in spontaneously hypertensive (SH) rats, systolic blood pressure; assay type: in vivo, spontaneously hypertensive (SH) male Okamoto rats
Description: […] A hypotension of 21.1% was induced by the compound of Example 1 by 12 hours after administration.
These investigations were carried but in spontaneously hypertensive (SH) male Okamoto rats. At least one week before starting the experiment, the animals had individually been maintained in cages and received water and semisynthetic rat food ad libitum. In the same time of each day, the blood pressure of each animal was measured and gastric tubing was carried out while immobilizing the animals. Animals with a blood pressure below 170 Hgmm were excluded from the experiment. Based on the daily determined blood pressure values, the animals were divided to experimental groups having a nearly equal average blood pressure and deviation.
At the beginning of the experiment, the animals were given 0.2 ml/100 g of a solution containing the test compound, and 1 ml/100 g of Furosemide solution, respectively. Animal groups treated with physiological saline solution and solvent, respectively were also investigated in each experiment.
Before measuring the blood pressure, the animals were put into a light-insulated sound-proof chamber then immobilized. An inflatable rubber cuff was placed on their tail root (onto the same site in each case) which was connected with a manometer.
The material and diameter of the tail cuff was standardized. The measurement was carried out according to the Riva-Rocci principle. For determining the systolic blood pressure, the palpitation method was used. The heart rate was evaluated by a piezoelektric crystal put onto the rubber ring. The blood pressure measurement of each animal was started by 2 minutes following the immobilization, repeated in every 30 seconds and usually, the values several times repeatedly observed were accepted.
Effect of a single oral dose of the compound of Example 1 or Furosemide, respectively on the systolic blood pressure of SH rats

[4] = Saluretic effect in dogs (urine volume, Na and K, 0-7 and 7-24 hours); assay type: in vivo, perineotomized female dogs
Description: The compound described in Example 1 was studied also on perineotomized female dogs. […] For adaptation, starting from the 4th week following the operation, the urinary bladder of the animals was evacuated by a catheter or treated with saline via a gastric tube. During the experiment, the dogs were kept on a standard food and they received water ad libitum. On the days of the experiements, the dogs were fasted and received only 20 ml/kg of water. Sodium in an 7.7 mmol/kg and potassium in an amount of 6.02 mmol/kg were introduced with the food.
On the day of the experiment, the bladder of the animals was evacuated and a blood sample was taken from the leg vein, then a solution of the diuretic and solvent to the controls, respectively were administered in a dose of 10 ml/kg via a gastric tube. The animals were placed separately in metabolic cages. After 7 and 24 hours, respectively the bladder of the animals was catheterized and the urine was collected by washing the metabolic cage. After 24 hours following the catheterization, a blood sample was taken again.
In addition to the discharged volume, the Na^+ and K^+ content of the urine as well as the glucose and cholesterol level of the serum were determined.

[5] = read-out: K (potassium) diuresis, percentage of the simultaneously measured control values
[6] = read-out: Na (sodium) diuresis, percentage of the simultaneously measured control values
[7] = read-out: Water diuresis, percentage of the simultaneously measured control values
[8] = single oral dose 5 mg/kg, before treatment 216 mmHg
[9] = single oral dose 100 mg/kg, before treatment 201 mmHg

Row | Structure (SMILES) | response vs control in vivo at 5 mg/kg [2, 5] [%] | response vs control in vivo at 5 mg/kg [2, 6] [%] | response vs control in vivo at 5 mg/kg [2, 7] [%] | Na/K ratio of the urine discharged [2] | other results
1 | NS(=O)(=O)c1cc(C(=O)Nn2c(=S)[nH]c3cc(C(=O)O)ccc32)ccc1Cl.O [Example 1, 1-(4'-chloro-3'-sulfamoylbenzoyl)amino-5-carboxybenzimidazole-2-thione monohydrate] | 122 | 152 | 148 | 4.6 | deterioration of the glucose tolerance ([1]; even in a high dose (30 mg/kg)): does not induce any deterioration; effect on the cholesterol level of the serum ([1]; in vivo): no significant effect; effect on the uric acid concentration of the serum ([1]; in vivo): no significant effect; discharged urine volume as well as ion diuresis ([2]; 5 mg/kg oral, compared with Dihydrochlorothiazide and Furosemide): particularly advantageous; Na/K index ([2]; 5 mg/kg oral, result in words): highly preferable; Hypotension 6 hours following treatment, % ([3]; single oral dose 5 mg/kg): 14.3%; Hypotension 6 hours following treatment [3, 8]: 31 mmHg; Hypotension 12 hours following treatment [3, 8]: 45 mmHg; Hypotension 12 hours following treatment, % ([3]; single oral dose 5 mg/kg, monohydrate, 5 mg/kg): 21.1% and 20.1%; Hypotension 24 hours following treatment, % ([3]; single oral dose 5 mg/kg): 13.8%; Hypotension 24 hours following treatment [3, 8]: 30 mmHg
2 | CSc1nc2cc(C(F)(F)F)ccc2n1NC(=O)c1ccc(Cl)c(S(N)(=O)=O)c1 [Example 30, 1-(4'-chloro-3'-sulfamoylbenzoyl)-amino-2-methylthio-5-trifluoromethylbenzimidazole] | 108 | 106 | 114 | 3.0 | –
3 | COC(=O)c1ccc2c(c1)nc(C)n2NC(=O)c1ccc(Cl)c(S(N)(=O)=O)c1 [Example 32, 1-(4'-chloro-3'-sulfamoylbenzoyl)amino-5-methoxycarbonyl-2-methylbenzimidazole] | 115 | 121 | 117 | 3.2 | –
4 | NS(=O)(=O)c1cc(C(=O)O)c(NCc2ccco2)cc1Cl [Furosemide, reference compound] | 105 | 106 | 107 | 2.7 | diuretic effect in the 7 to 24 hours' period ([4]; 7 to 24 hours' period): low; Hypotension 6 hours following treatment, % ([3]; single oral dose 100 mg/kg): 25.3%; Hypotension 6 hours following treatment [3, 9]: 51 mmHg; Hypotension 12 hours following treatment, % ([3]; single oral dose 100 mg/kg): 19.4%; Hypotension 12 hours following treatment [3, 9]: 39 mmHg; Hypotension 24 hours following treatment, % ([3]; single oral dose 100 mg/kg): 1.5%; Hypotension 24 hours following treatment [3, 9]: 3 mmHg
5 | NS(=O)(=O)c1cc2c(cc1Cl)NCNS2(=O)=O [Hypothiazide, reference compound] | 114 | 129 | 124 | 3.5 | diuretic effect in 7 hours' period ([4]; 7 hours' period after administration): low
